Laboratory results: ChEMBL document CHEMBL1201862, “PubChem BioAssay data set” (2004)
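Each compound was tested at five concentrations against cells in 96-well plates for 48 hours. GI50 = concentration required for 50% inhibition of growth.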 The source made the active and inactive calls. No stated cut-off is given here; in the data, active = GI50 up to about 1.1 µM and inactive = higher.

Key:
Assay in all cases: DTP human tumour cell line panel, 48 h
SK-OV-3 = system: SK-OV-3
SF-539 = system: SF-539
UACC-257 = system: UACC-257
RXF 393 = system: RXF 393
Malme-3M = system: Malme-3M
NCI-H226 = system: NCI-H226
HT-29 = system: HT-29
SN12C = system: SN12C
MCF7 = system: MCF7
ACHN = system: ACHN
U-251 = system: U-251
SW-620 = system: SW-620
RPMI-8226 = system: RPMI-8226
UO-31 = system: UO-31
NCI-H522 = system: NCI-H522
SNB-19 = system: SNB-19
SK-MEL-5 = system: SK-MEL-5
MDA-MB-231 = system: MDA-MB-231
T47D = system: T47D
HOP-92 = system: HOP-92

Row | SMILES | GI50 (SK-OV-3) | GI50 (SF-539) | GI50 (UACC-257) | GI50 (RXF 393) | GI50 (Malme-3M) | GI50 (NCI-H226) | GI50 (HT-29) | GI50 (SN12C) | GI50 (MCF7) | GI50 (ACHN) | GI50 (U-251) | GI50 (SW-620) | GI50 (RPMI-8226) | GI50 (UO-31) | GI50 (NCI-H522) | GI50 (SNB-19) | GI50 (SK-MEL-5) | GI50 (MDA-MB-231) | GI50 (T47D) | GI50 (HOP-92)
1 | CC(=O)O[C@H]1CC[C@@]2(C)C(=CC[C@H]3[C@@H]4C[C@H](N5CCOCC5)[C@H](OC(C)=O)[C@@]4(C)CC[C@@H]32)C1 | > 100 µM (inactive) | 78 µM (inactive) | > 100 µM (inactive) | 42.4 µM (inactive) | > 100 µM (inactive) | > 100 µM (inactive) | 32.4 µM (inactive) | > 100 µM (inactive) | > 100 µM (inactive) | > 100 µM (inactive) | > 100 µM (inactive) | > 100 µM (inactive) | 92.5 µM (inactive) | > 100 µM (inactive) | > 100 µM (inactive) | > 100 µM (inactive) | > 100 µM (inactive) | > 100 µM (inactive) | > 100 µM (inactive) | > 100 µM (inactive)
2 | CC(C)OC(=O)c1ccc(NCC2=CC(=O)C=CC2=O)cc1 | 42 µM (inactive) | 7.45 µM (inactive) | 14.1 µM (inactive) | 12.8 µM (inactive) | 8.97 µM (inactive) | 30 µM (inactive) | 16.4 µM (inactive) | 12.9 µM (inactive) | 12.4 µM (inactive) | 12 µM (inactive) | 16 µM (inactive) | 11.7 µM (inactive) | 2.54 µM (inactive) | 9.91 µM (inactive) | 1.69 µM (inactive) | 29.4 µM (inactive) | 17.4 µM (inactive) | 10.2 µM (inactive) | 2.25 µM (inactive) | 2.48 µM (inactive)
3 | NCCCCc1cc(O)c2c(c1O)C(=O)c1ccccc1C2=O | 14.9 µM (inactive) | 6.75 µM (inactive) | 17.5 µM (inactive) | 12.9 µM (inactive) | 14.7 µM (inactive) | 4.56 µM (inactive) | 4.19 µM (inactive) | 10.6 µM (inactive) | 5.41 µM (inactive) | 11.2 µM (inactive) | 9.75 µM (inactive) | 6.53 µM (inactive) | 7.13 µM (inactive) | 6.73 µM (inactive) | 10 µM (inactive) | 14.2 µM (inactive) | 12.4 µM (inactive) | 9.1 µM (inactive) | 18.1 µM (inactive) | 14.4 µM (inactive)
4 | CN1CCN(CN2C(=O)C3C4C=CC(C3C2=O)C2C(=O)N(CN3CCN(C)CC3)C(=O)C42)CC1 (stereo not given) | > 100 µM (inactive) | > 49.3 µM (inactive) | > 75.2 µM (inactive) | 27 µM (inactive) | > 55.3 µM (inactive) | > 87.1 µM (inactive) | 22.5 µM (inactive) | > 58.9 µM (inactive) | 27.2 µM (inactive) | > 64.4 µM (inactive) | > 54.5 µM (inactive) | 4.97 µM (inactive) | 20.7 µM (inactive) | > 87.3 µM (inactive) | > 42.1 µM (inactive) | > 63.1 µM (inactive) | 5.55 µM (inactive) | > 73.6 µM (inactive) | > 68.4 µM (inactive) | > 100 µM (inactive)
5 | Oc1c(C(O)(c2ccccc2)c2ccc3ccccc3c2O)ccc2ccccc12 | 17.9 µM (inactive) | 19 µM (inactive) | 10.2 µM (inactive) | 8.87 µM (inactive) | 11.8 µM (inactive) | 18.8 µM (inactive) | 17 µM (inactive) | 7.74 µM (inactive) | 2.93 µM (inactive) | 10.5 µM (inactive) | 9.31 µM (inactive) | 11.2 µM (inactive) | 2.11 µM (inactive) | 11.2 µM (inactive) | 4.01 µM (inactive) | 14.2 µM (inactive) | 5.68 µM (inactive) | 13.6 µM (inactive) | 2.96 µM (inactive) | 9.1 µM (inactive)
6 | NC(=O)CC1(O)C=CC(=O)C=C1 | > 100 µM (inactive) | > 100 µM (inactive) | > 100 µM (inactive) | > 100 µM (inactive) | > 100 µM (inactive) | > 100 µM (inactive) | > 100 µM (inactive) | > 100 µM (inactive) | > 100 µM (inactive) | > 100 µM (inactive) | > 100 µM (inactive) | > 100 µM (inactive) | > 100 µM (inactive) | > 100 µM (inactive) | 26.8 µM (inactive) | > 100 µM (inactive) | > 100 µM (inactive) | > 100 µM (inactive) | > 100 µM (inactive) | > 100 µM (inactive)
7 | Cc1ccc(/C=N/Nc2cc(C)c3ccccc3n2)s1 | 19.3 µM (inactive) | 21.3 µM (inactive) | 7.53 µM (inactive) | 23.3 µM (inactive) | 5.75 µM (inactive) | 14 µM (inactive) | 3.85 µM (inactive) | 13.1 µM (inactive) | 12 µM (inactive) | 20.1 µM (inactive) | 16.8 µM (inactive) | 21.7 µM (inactive) | 3.91 µM (inactive) | > 100 µM (inactive) | 4.06 µM (inactive) | 41.6 µM (inactive) | 8.3 µM (inactive) | 0.44 µM (active) | 5.48 µM (inactive) | 27.2 µM (inactive)
8 | O=c1[nH]/c(=C/c2ccc(OCc3ccccc3)cn2)c(=O)[nH]/c1=C/c1ccc(F)cc1 | 0.794 µM (active) | 0.923 µM (active) | 0.512 µM (active) | 0.243 µM (active) | 0.759 µM (active) | 2.22 µM (inactive) | 0.434 µM (active) | 0.785 µM (active) | 0.301 µM (active) | 1.72 µM (inactive) | 1.05 µM (active) | 0.416 µM (active) | 0.194 µM (active) | 0.498 µM (active) | 0.41 µM (active) | 2.3 µM (inactive) | 0.366 µM (active) | 8.13 µM (inactive) | 1.42 µM (inactive) | 0.586 µM (active)
9 | Cc1c(C#N)c2nc3ccccc3n2c(=O)/c1=C/Nc1ccc(Cl)cc1 | 14.1 µM (inactive) | 12.1 µM (inactive) | > 100 µM (inactive) | 11.7 µM (inactive) | > 100 µM (inactive) | 42.3 µM (inactive) | > 100 µM (inactive) | 93.3 µM (inactive) | 55.2 µM (inactive) | 10.6 µM (inactive) | 7.66 µM (inactive) | > 100 µM (inactive) | 37.8 µM (inactive) | 15.7 µM (inactive) | 46.2 µM (inactive) | 11 µM (inactive) | 19.4 µM (inactive) | 24.8 µM (inactive) | 37.6 µM (inactive) | 20.1 µM (inactive)
10 | Oc1ccc(Nc2nc(Cl)c3nc[nH]c3n2)cc1 | > 100 µM (inactive) | > 100 µM (inactive) | > 100 µM (inactive) | > 100 µM (inactive) | > 100 µM (inactive) | > 100 µM (inactive) | > 100 µM (inactive) | > 100 µM (inactive) | > 100 µM (inactive) | 93.1 µM (inactive) | > 100 µM (inactive) | > 100 µM (inactive) | 61.4 µM (inactive) | > 100 µM (inactive) | > 100 µM (inactive) | > 100 µM (inactive) | > 100 µM (inactive) | > 100 µM (inactive) | 61.9 µM (inactive) | 14 µM (inactive)
11 | COc1cccc(Nc2nc(N)nc(N)c2N)c1 | > 100 µM (inactive) | 40.8 µM (inactive) | > 100 µM (inactive) | > 100 µM (inactive) | > 100 µM (inactive) | > 100 µM (inactive) | 40.7 µM (inactive) | 20.1 µM (inactive) | 30.4 µM (inactive) | 42.6 µM (inactive) | 76.9 µM (inactive) | 31.8 µM (inactive) | 24.9 µM (inactive) | > 100 µM (inactive) | 30 µM (inactive) | > 100 µM (inactive) | 30.3 µM (inactive) | 22.1 µM (inactive) | 35.6 µM (inactive) | > 100 µM (inactive)
